Patent US8163775B2, “Allosteric modulators of metabotropic glutamate receptors” (Addex Pharma SA, priority 2003, dated 2012)

## O=C(c1ccc(F)cc1)N1CCCC(c2nnc(-c3ccc(F)cc3)[nH]2)C1 (centres unmarked) [Example 1, (4-Fluoro-phenyl)-{3-[5-(4-fluoro-phenyl)-4H-[1,2,4]triazol-3-yl]-piperidin-1-yl}-methanone]
  melting point: 95 °C

## COc1ccc(-c2noc(C3CCCN(C(=O)c4ccccc4)C3)n2)cc1 (centres unmarked) [Example 3, {3-[3-(4-Methoxy-phenyl)-[1,2,4]oxadiazol-5-yl]-piperidin-1-yl}-phenyl-methanone]
  melting point: 121 °C

## O=C(c1ccccc1)N1CCCC(c2nc(-c3ccc(F)cc3)no2)C1 (centres unmarked) [Example 5, {3-[3-(4-Fluoro-phenyl)-[1,2,4]oxadiazol-5-yl]-piperidin-1-yl}-phenyl-methanone]
  melting point: 82 to 83 °C

## O=C(c1cccc(F)c1)N1CCCC(c2nc(-c3ccc(F)cc3)no2)C1 (centres unmarked) [Example 6, (3-Fluoro-phenyl)-{3-[3-(4-fluoro-phenyl)-[1,2,4]oxadiazol-5-yl]-piperidin-1-yl}-methanone]
  melting point: 139 to 140 °C

## O=C(c1ccc(F)cc1)N1CCCC(c2nc(-c3ccccc3)no2)C1 (centres unmarked) [Example 7, (4-Fluoro-phenyl)-[3-(3-phenyl-[1,2,4]oxadiazol-5-yl)-piperidin-1-yl]-methanone]
  melting point: 78 to 79 °C

## O=C(c1ccc(F)cc1)N1CCCC(c2nc(-c3cccc(F)c3)no2)C1 (centres unmarked) [Example 10, (4-Fluoro-phenyl)-{3-[3-(3-fluoro-phenyl)-[1,2,4]oxadiazol-5-yl]-piperidin-1-yl}-methanone]
  melting point: 86 to 89 °C

## O=C(c1cccs1)N1CCC[C@H](c2nc(-c3ccc(F)cc3)no2)C1 [Example 13, S-(thiophen-2-yl)-{3-[3-(4-fluoro-phenyl)-[1,2,4]oxadiazol-5-yl]-piperidin-1-yl}-methanone]
  melting point: 82 to 83 °C

## Cc1nc(-c2cnccn2)sc1C(=O)N1CCC[C@H](c2nc(-c3ccc(F)cc3)no2)C1 [Example 14, {(S)-3-[3-(4-Fluoro-phenyl)-[1,2,4]oxadiazol-5-yl]-piperidin-1-yl}-(4-methyl-2-pyrazin-2-yl-thiazol-5-yl)-methanone]
  melting point: 147 to 148 °C

## O=C(c1csnn1)N1CCC[C@H](c2nc(-c3ccc(F)cc3)no2)C1 [Example 18, {(S)-3-[3-(4-Fluoro-phenyl)-[1,2,4]oxadiazol-5-yl]-piperidin-1-yl}-[1,2,3]thiadiazol-4-yl-methanone]
  melting point: 90 to 91 °C

## O=C(c1nc2ccccc2s1)N1CCC[C@H](c2nc(-c3ccc(F)cc3)no2)C1 [Example 19, Benzothiazol-2-yl-{(S)-3-[3-(4-fluoro-phenyl)-[1,2,4]oxadiazol-5-yl]-piperidin-1-yl}-methanone]
  melting point: 130 to 131 °C

## Cc1cc(C(=O)N2CCC[C@H](c3nc(-c4ccc(F)cc4)no3)C2)nn1C [Example 21, (1,5-Dimethyl-1H-pyrazol-3-yl)-{(S)-3-[3-(4-fluoro-phenyl)-[1,2,4]oxadiazol-5-yl]-piperidin-1-yl}-methanone]
  melting point: 108 to 109 °C

## O=C(c1ccc(C(F)(F)F)cc1)N1CCC[C@H](c2nc(-c3ccc(F)cc3)no2)C1 [Example 22, {(S)-3-[3-(4-Fluoro-phenyl)-[1,2,4]oxadiazol-5-yl]-piperidin-1-yl}-(4-trifluoromethyl-phenyl)-methanone]
  melting point: 109 to 110 °C

## N#Cc1ccc(C(=O)N2CCC[C@H](c3nc(-c4ccc(F)cc4)no3)C2)cc1 [Example 23, 4-{(S)-3-[3-(4-Fluoro-phenyl)-[1,2,4]oxadiazol-5-yl]-piperidine-1-carbonyl}-benzonitrile]
  melting point: 129 to 130 °C

## O=C(c1ccno1)N1CCC[C@H](c2nc(-c3ccc(F)cc3)no2)C1 [Example 24, {(S)-3-[3-(4-Fluoro-phenyl)-[1,2,4]oxadiazol-5-yl]-piperidin-1-yl}-isoxazol-5-yl-methanone]
  melting point: 93 to 94 °C

## O=C(c1cc(F)c(F)c(F)c1)N1CCC[C@H](c2nc(-c3ccc(F)cc3)no2)C1 [Example 26, {(S)-3-[3-(4-Fluoro-phenyl)-[1,2,4]oxadiazol-5-yl]-piperidin-1-yl}-(3,4,5-trifluoro-phenyl)-methanone]
  melting point: 139 to 140 °C

## O=C(c1ccc(F)c(Cl)c1)N1CCC[C@H](c2nc(-c3ccc(F)cc3)no2)C1 [Example 27, (3-Chloro-4-fluoro-phenyl)-{(S)-3-[3-(4-fluoro-phenyl)-[1,2,4]oxadiazol-5-yl]-piperidin-1-yl}-methanone]
  melting point: 123 to 124 °C

## Cc1cc(C(=O)N2CCC[C@H](c3nc(-c4ccc(F)cc4)no3)C2)ccc1F [Example 30, (4-Fluoro-3-methyl-phenyl)-{(S)-3-[3-(4-fluoro-phenyl)-[1,2,4]oxadiazol-5-yl]-piperidin-1-yl}-methanone]
  melting point: 106 to 107 °C

## O=C(c1ccc(-c2ccccn2)s1)N1CCC[C@H](c2nc(-c3ccc(F)cc3)no2)C1 [Example 31, {(S)-3-[3-(4-Fluoro-phenyl)-1,2,4-oxadiazol-5-yl]-piperidin-1-yl}-(5-pyridin-2-yl-thiophen-2-yl)-methanone]
  melting point: 115 to 117 °C

## Cc1ccsc1C(=O)N1CCC[C@H](c2nc(-c3ccc(F)cc3)no2)C1 [Example 32, {(S)-3-[3-(4-Fluoro-phenyl)-1,2,4-oxadiazol-5-yl]-piperidin-1-yl}-(3-methyl-thiophen-2-yl)-methanone]
  melting point: 90 to 92 °C

## Cn1cccc1C(=O)N1CCC[C@H](c2nc(-c3ccc(F)cc3)no2)C1 [Example 33, {(S)-3-[3-(4-Fluoro-phenyl)-1,2,4-oxadiazol-5-yl]-piperidin-1-yl}-(1-methyl-1H-pyrrol-2-yl)-methanone]
  melting point: 84 to 85 °C

## O=C(c1ccc(F)c(F)c1)N1CCC[C@H](c2nc(-c3ccc(F)cc3)no2)C1 [Example 35, (3,4-Difluoro-phenyl)-{(S)-3-[3-(4-fluoro-phenyl)-[1,2,4]oxadiazol-5-yl]-piperidin-1-yl}-methanone]
  melting point: 120 to 121 °C

## O=C(c1ccc2ncsc2c1)N1CCC[C@H](c2nc(-c3ccc(F)cc3)no2)C1 [Example 36, Benzothiazol-6-yl-{(S)-3-[3-(4-fluoro-phenyl)-1,2,4-oxadiazol-5-yl]-piperidin-1-yl}-methanone]
  melting point: 63 to 64 °C

## O=C(c1nccs1)N1CCC[C@H](c2nc(-c3ccc(F)cc3)no2)C1 [Example 37, {(S)-3-[3-(4-Fluoro-phenyl)-1,2,4-oxadiazol-5-yl]-piperidin-1-yl}-thiazol-2-yl-methanone]
  melting point: 94 to 95 °C

## Cc1ncsc1C(=O)N1CCC[C@H](c2nc(-c3ccc(F)cc3)no2)C1 [Example 38, {(S)-3-[3-(4-Fluoro-phenyl)-1,2,4-oxadiazol-5-yl]-piperidin-1-yl}-(4-methyl-thiazol-5-yl)-methanone]
  melting point: 122 to 124 °C

## O=C(c1ccc(N2CCOCC2)nc1)N1CCC[C@H](c2nc(-c3ccc(F)cc3)no2)C1 [Example 39, {(S)-3-[3-(4-Fluoro-phenyl)-1,2,4-oxadiazol-5-yl]-piperidin-1-yl}-(6-morpholin-4-yl-pyridin-3-yl)-methanone]
  melting point: 112 to 114 °C

## O=C(c1ccc2[nH]ccc2c1)N1CCC[C@H](c2nc(-c3ccc(F)cc3)no2)C1 [Example 40, {(S)-3-[3-(4-Fluoro-phenyl)-1,2,4-oxadiazol-5-yl]-piperidin-1-yl}-(1H-indol-5-yl)-methanone]
  melting point: 191 to 192 °C
